Values of other authors as cited in patent publication US20240115547A1, “PSYCHOTROPIC AGENTS AND USES THEREOF” (LB PHARMACEUTICALS INC., priority 2021, published 2024).

Legend:
[1] = test system: Striatal D2/D3 Receptor; conditions: in vivo; cited from earlier work
[2] = administration of 50 mg amisulpride, previously published (FIG. 4A); cited from earlier work
[3] = biological target: D1 receptor subtype (Homo sapiens, UniProt P21728); conditions: cited from earlier work
[4] = biological target: T1, D4 receptor subtype (Homo sapiens, UniProt P21917); conditions: cited from earlier work
T1 sequence (P21917 1-419): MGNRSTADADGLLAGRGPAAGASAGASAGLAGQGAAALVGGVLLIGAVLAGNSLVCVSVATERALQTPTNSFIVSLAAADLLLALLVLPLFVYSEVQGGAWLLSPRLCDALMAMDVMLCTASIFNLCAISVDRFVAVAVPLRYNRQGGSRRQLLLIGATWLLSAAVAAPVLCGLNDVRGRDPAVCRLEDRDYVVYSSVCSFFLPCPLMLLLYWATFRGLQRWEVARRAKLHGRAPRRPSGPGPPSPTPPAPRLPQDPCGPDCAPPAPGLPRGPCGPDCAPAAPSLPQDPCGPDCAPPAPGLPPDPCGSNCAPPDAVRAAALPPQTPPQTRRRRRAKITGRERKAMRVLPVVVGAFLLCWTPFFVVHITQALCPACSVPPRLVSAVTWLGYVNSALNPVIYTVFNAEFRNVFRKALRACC

[5] = biological target: D5 receptor subtype (Homo sapiens, UniProt P21918); conditions: cited from earlier work
D5 receptor subtype, sequence (P21918 whole entry): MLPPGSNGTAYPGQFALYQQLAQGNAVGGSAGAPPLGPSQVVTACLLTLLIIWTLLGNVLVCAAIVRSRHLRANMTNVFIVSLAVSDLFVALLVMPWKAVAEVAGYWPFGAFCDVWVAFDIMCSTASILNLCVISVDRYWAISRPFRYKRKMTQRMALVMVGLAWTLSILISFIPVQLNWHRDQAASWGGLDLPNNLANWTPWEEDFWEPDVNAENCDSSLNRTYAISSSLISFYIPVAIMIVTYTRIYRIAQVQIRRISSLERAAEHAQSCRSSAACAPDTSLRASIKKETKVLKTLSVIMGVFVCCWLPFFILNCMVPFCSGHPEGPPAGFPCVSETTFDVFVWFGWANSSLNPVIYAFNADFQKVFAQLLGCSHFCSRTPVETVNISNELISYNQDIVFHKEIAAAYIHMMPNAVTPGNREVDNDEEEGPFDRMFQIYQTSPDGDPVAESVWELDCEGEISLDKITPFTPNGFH

[6] = biological target: 5-HT2a receptor (Homo sapiens, UniProt P28223); conditions: compared to other antipsychotics; cited from earlier work
5-HT2a receptor, sequence (P28223 whole entry): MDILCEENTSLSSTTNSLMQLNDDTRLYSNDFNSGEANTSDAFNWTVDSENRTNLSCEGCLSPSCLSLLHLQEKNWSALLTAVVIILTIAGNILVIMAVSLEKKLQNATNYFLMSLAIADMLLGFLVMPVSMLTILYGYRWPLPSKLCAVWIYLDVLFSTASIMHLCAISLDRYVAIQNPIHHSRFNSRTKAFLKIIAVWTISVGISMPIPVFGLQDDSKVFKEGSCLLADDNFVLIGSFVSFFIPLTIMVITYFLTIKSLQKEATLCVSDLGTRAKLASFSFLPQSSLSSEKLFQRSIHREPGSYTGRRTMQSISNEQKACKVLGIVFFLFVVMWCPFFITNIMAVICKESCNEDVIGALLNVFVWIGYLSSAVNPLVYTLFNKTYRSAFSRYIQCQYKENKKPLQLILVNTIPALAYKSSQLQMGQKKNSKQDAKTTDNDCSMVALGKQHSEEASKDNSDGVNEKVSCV

[7] = 2014 study; cited from earlier work

D1 receptor subtype, sequence (P21728 whole entry): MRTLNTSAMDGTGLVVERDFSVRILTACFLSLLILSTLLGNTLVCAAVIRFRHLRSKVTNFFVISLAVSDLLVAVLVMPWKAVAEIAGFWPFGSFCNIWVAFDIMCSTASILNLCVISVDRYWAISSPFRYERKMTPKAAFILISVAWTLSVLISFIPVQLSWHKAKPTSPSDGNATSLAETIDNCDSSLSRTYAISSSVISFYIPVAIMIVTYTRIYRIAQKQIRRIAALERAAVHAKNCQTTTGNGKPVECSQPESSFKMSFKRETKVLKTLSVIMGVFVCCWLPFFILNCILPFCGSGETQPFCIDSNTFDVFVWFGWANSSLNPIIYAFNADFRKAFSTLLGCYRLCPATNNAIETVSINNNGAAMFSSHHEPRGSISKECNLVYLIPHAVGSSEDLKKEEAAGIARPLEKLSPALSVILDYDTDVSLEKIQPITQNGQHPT

## CCN1CCCC1CNC(=O)c1cc(S(=O)(=O)CC)c(N)cc1OC (stereo not shown) [amisulpride, 4-amino-N-(((1-ethyl-2-pyrrolidinyl)methyl)-5-(ethylsulfonyl))-2-methoxybenzamide]
[1]
  dose required for 75% dopamine (e.g., D2/D3) RO: more than 400 mg
[2]
  AUC: 603 ngh/mL
[3]
  affinity for D1 receptor subtype: without any affinity
[4]
  affinity for D4 receptor subtype: without any affinity
[5]
  affinity for D5 receptor subtype: without any affinity
[6]
  activity at the 5-HT2a receptor: not noted to have any activity
[7]
  passive diffusion across a PAMPA membrane (measured as Pe): lowest of 30 psychiatric drugs tested
